Experimental data taken from patent US12201602B2, “Medicament comprising combination of sepetaprost and Rho-associated coiled-coil containing protein kinase inhibitor” (SANTEN PHARMACEUTICAL CO., LTD., priority 2017, dated 2025).

What was measured:
normal pressure monkeys [1] = assay: Intraocular pressure lowering effect of sepetaprost and netarsudil, alone and concomitantly (Example 2); assay type: in vivo, cynomolgus monkey; settings: eye drop 20 μL/eye, sepetaprost 0.0003% (w/v), netarsudil 0.01% (w/v), average of 8 monkeys
Protocol: In order to examine usefulness of the combination of sepetaprost and a Rho-associated coiled-coil containing protein kinase inhibitor(s), the effect of lowering an intraocular pressure when sepetaprost and netarsudil which is a Rho-associated coiled-coil containing protein kinase inhibitor were administered concomitantly to experimental animals (normal pressure monkeys) was investigated. Sepetaprost was dissolved in purified water containing a solubilizing agent, and then, a sepetaprost solution with a desired concentration was prepared by using a commonly used method. […] An effect of lowering an intraocular pressure when sepetaprost and netarsudil were administered concomitantly was investigated. As a comparative subject, an effect of lowering an intraocular pressure when sepetaprost or netarsudil was administered alone was also investigated. As a control, the base of the sepetaprost solution and the base of the netarsudil solution were administered. […] Also, the intraocular pressure was measured each three times, and the average value was calculated. With respect to the changed value of the intraocular pressure (mmHg), a difference from the value of the intraocular pressure before administration at each measurement time point was calculated. […] The test was carried out in the same manner as the above-mentioned concomitant administration test except for changing the netarsudil solution to the base of the netarsudil solution. The test was carried out in the same manner as the above-mentioned concomitant administration test except for changing the sepetaprost solution to the base of the sepetaprost solution. The test was carried out in the same manner as the above-mentioned concomitant administration test except for changing the sepetaprost solution to the base of the sepetaprost solution and changing the netarsudil solution to the base of the netarsudil solution. The changes in the lowering of the intraocular pressure with the lapse of time for each administered group are shown in FIG. 2 and Table 2. The change in the intraocular pressure values are shown by an average value ±SEM of the difference from the value (0 hour) before administration of eight monkeys in each group with regard to each measurement time point of each individual. Comparison of the control group with the sepetaprost group, the netarsudil group, or the sepetaprost/netarsudil concomitant use group, and comparison of the sepetaprost/netarsudil concomitant use group with the sepetaprost group or the netarsudil group was carried out by, after carrying out the Bartlett test, in the case where dispersion is uniform, using the Dunnett test, or in the case of ununiform, using the Steel test. The significance level with respect to the control group was shown as *: p<0.05 and **: p<0.01 in the Steel test, and *: […] in the Dunnett test.

normal pressure monkeys [2] = assay: Intraocular pressure lowering effect of sepetaprost and ripasudil, alone and concomitantly (Example 1); assay type: in vivo, cynomolgus monkey; settings: eye drop 20 μL/eye, sepetaprost 0.0003% (w/v), ripasudil 0.4% (w/v), average of 8 monkeys
Protocol: In order to examine usefulness of the combination of sepetaprost and a Rho-associated coiled-coil containing protein kinase inhibitor(s), the effect of lowering an intraocular pressure when sepetaprost and ripasudil which is a Rho-associated coiled-coil containing protein kinase inhibitor were administered concomitantly to experimental animals (normal pressure monkeys) was investigated. Sepetaprost was dissolved in purified water containing a solubilizing agent, and then, a sepetaprost solution with a desired concentration was prepared by using a commonly used method. Commercially available ripasudil eye drop (Kowa Company, Ltd., […] (Registered Trademark) eye drops 0.4%) was used as it was. An effect of lowering an intraocular pressure when sepetaprost and ripasudil were administered concomitantly was investigated. As a comparative subject, an effect of lowering an intraocular pressure when sepetaprost or ripasudil was administered alone was also investigated. As a control, the base of the sepetaprost solution and physiological saline solution were administered. • Sepetaprost solution: 0.0003% (w/v) sepetaprost solution (volume of eye dropped: 20 μL/eye) • Ripasudil solution: 0.4% (w/v) ripasudil solution (trade name: […] Also, the intraocular pressure was measured each three times, and the average value was calculated. With respect to the changed value of the intraocular pressure (mmHg), a difference from the value of the intraocular pressure before administration at each measurement time point was calculated. […] The test was carried out in the same manner as the above-mentioned concomitant administration test except for changing the ripasudil solution to the physiological saline solution. The test was carried out in the same manner as the above-mentioned concomitant administration test except for changing the sepetaprost solution to the base of the sepetaprost solution. The test was carried out in the same manner as the above-mentioned concomitant administration test except for changing the sepetaprost solution to the base of the sepetaprost solution and changing the ripasudil solution to the physiological saline solution. The changes in the lowering of the intraocular pressure with the lapse of time for each administered group are shown in FIG. 1 and Table 1. The changes in the intraocular pressure values are shown by an average value ±SEM of the difference from the value (0 hour) before administration of eight monkeys in each group with regard to each measurement time point of each individual. Comparison of the control group with the sepetaprost group, the ripasudil group, or the sepetaprost/ripasudil concomitant use group, and comparison of the sepetaprost/ripasudil concomitant use group with the sepetaprost group or the ripasudil group was carried out by, after carrying out the Bartlett test, in the case where dispersion is uniform, using the Dunnett test, or in the case of ununiform, using the Steel test. The significance level with respect to the control group was shown as ##: p<0.01 in the Dunnett test, and *: p<0.05 and **: p<0.01 in the Steel test.

Row | SMILES | changed value of the intraocular pressure (difference from value before administration) (normal pressure monkeys [1]; 2 hours after dropping) [mmHg] | changed value of the intraocular pressure (difference from value before administration) (normal pressure monkeys [1]; 4 hours after dropping) [mmHg] | changed value of the intraocular pressure (difference from value before administration) (normal pressure monkeys [1]; 6 hours after dropping) [mmHg] | changed value of the intraocular pressure (difference from value before administration) (normal pressure monkeys [1]; 8 hours after dropping) [mmHg] | changed value of the intraocular pressure (difference from value before administration) (normal pressure monkeys [1]; 24 hours after dropping) [mmHg] | changed value of the intraocular pressure (difference from value before administration) (normal pressure monkeys [2]; 2 hours after dropping) [mmHg] | changed value of the intraocular pressure (difference from value before administration) (normal pressure monkeys [2]; 4 hours after dropping) [mmHg] | changed value of the intraocular pressure (difference from value before administration) (normal pressure monkeys [2]; 6 hours after dropping) [mmHg] | changed value of the intraocular pressure (difference from value before administration) (normal pressure monkeys [2]; 8 hours after dropping) [mmHg] | changed value of the intraocular pressure (difference from value before administration) (normal pressure monkeys [2]; 24 hours after dropping) [mmHg]
1 | Cc1ccc(C(=O)OCc2ccc([C@@H](CN)C(=O)Nc3ccc4cnccc4c3)cc2)c(C)c1 [Netarsudil, [4-[(1S)-1-(aminomethyl)-2-(isoquinolin-6-ylamino)-2-oxoethyl]phenyl]methyl 2,4-dimethylbenzoate] | −0.4 | −2.2 | −2.1 | −2.3 | −0.6 | – | – | – | – | –
2 | C[C@H]1CNCCCN1S(=O)(=O)c1cccc2cncc(F)c12 [Ripasudil, (S)-(−)-1-(4-fluoro-5-isoquinolinesulfonyl)-2-methyl-1,4-homopiperazine] | – | – | – | – | – | −2.4 | −1.8 | −1.6 | −1.5 | −0.4
3 | CC(C)OC(=O)CCC[C@H]1CC[C@@H]2[C@@H](/C=C/[C@@H](O)COc3cc(F)ccc3F)[C@H](O)C[C@@H]2OC1 [Sepetaprost, 2-propanyl 4-{(3S, 5aR, 6R, 7R, 8aS)-6-[(1E, 3R)-4-(2,5-difluorophenoxy)-3-hydroxy-1-buten-1-yl]-7-hydroxyoctahydro-2H-cyclopenta[b]oxepin-3-yl}butanoate] | −0.2 | −1.6 | −2.2 | −2.0 | −1.1 | −0.1 | −0.9 | −1.8 | −1.9 | −0.6
